From patent publication US6291671A, “Process for producing drug complexes” (Daiichi Pharmaceutical Co., Ltd., priority 1996, dated 2001)
Counter-ions that a name gives are not always drawn. Ends that are not written are not given here. Peptide text beside a SMILES is read from it. * marks the point of attachment. DW‑8089 = (1S,9S)-1-amino-9-ethyl-2,3-dihydro-9-hydroxy-1H,12H-benzo[de]pyrano[3',4':6,7]indolizino[1,2-b]quinoline-10,13(9H,15H)-dione, CC[C@@]1(O)C(=O)OCc2c1cc1n(c2=O)Cc2c-1nc1cccc3c1c2[C@@H](N*)CC3; Exatecan = CC[C@@]1(O)C(=O)OCc2c1cc1n(c2=O)Cc2c-1nc1cc(F)c(C)c3c1c2[C@@H](N*)CC3

Tests used:
[1] = test system: Meth A tumor-bearing mice; experiment: Antitumor activity, Meth A tumor-bearing mice, i.v. every 4 days 4 times; type: in vivo, mouse; conditions: Example 11, every 4 days 4 times
Procedure: (§1) Meth A tumor-bearing mice were prepared (7 mice per group) by subcutaneously transplanting 1×10^6 mouse fibrosarcoma Meth A cells into the right inguinal regions of BALB/c male mice (7-week old). On day 7, the drug complex of Example 9 dissolved in distilled water for injection was injected in the tail vein of the Meth A tumor-bearing mice every 4 days 4 times. On day 21 after the transplantation, tumor masses were excised and weighed to calculate the inhibition rate of tumor growth according to the following equation: inhibition rate of tumor growth (%)=[1-(average tumor weight of the group administered with the test sample/average tumor weight of control group)]×100.

[2] = test system: Walker 256 tumor-bearing rats; experiment: Releasing rate of spacers judged from efficacy of doxorubicin drug complexes or free doxorubicin at tumorous sites; type: in vivo, rat; conditions: for releasing rate of spacer: drug complexes bound with doxorubicin, Walker 256 tumor-bearing rats
Excerpt: Specific examples of the spacer are shown in the following table; however, the spacer used for the method for preparing the drug complexes of the present invention is not limited to those mentioned below, and it can be readily understood that one of ordinary skilled in the art can appropriately choose a spacer so as to achieve an optimum releasing rate of a drug compound. In the table, the left ends of peptide sequences are N-terminuses and the residues of drug compounds are bound to C-terminuses.D-Phe represents a D-phenylalanine residue and the other amino acids represent L-amino acids. The degrees of the releasing rate were judged from the degree of appearance of efficacy of the drug complexes bound with doxorubicin against Walker 256 tumor-bearing rats, or from the free doxorubicin concentration at tumorous sites of Walker 256 tumor-bearing rats.

[3] = test system: Meth A tumor-bearing mice; experiment: Antitumor activity, Meth A tumor-bearing mice, single administration on day 7; type: in vivo, mouse; conditions: for Inhibition rate: calculated based on the drug compound; for antitumor activity (in words) / effective dose-range (in words): single administration, compared to the drug compound, per se
Procedure: as §1
Meth A tumor-bearing mice (6 mice per group) were prepared according to a similar manner to that of Example 11 and the antitumor activity was compared to that obtained by single administration of the drug complexes of Examples 8 and 9 once on day 7.
(§2) Meth A tumor-bearing mice (6 mice per group) were prepared according to a similar manner to that of Example 11 and the antitumor activity of the drug complex of Example 15 was examined by single administration in a similar manner to that of Example 12.
as §2, with “1,” for “11”, “41” for “15”, “in the cases of” for “by”, “12, and its antitumor activity was compared to that of the drug compound, per se.” for “12.”
Meth A tumor-bearing mice (6 mice per group) were prepared according to a similar manner to that of Example 11, and the antitumor activity was examined according to a similar method to that in Example 12 by single administration of the drug complexes of Examples 29, 43, and 44, respectively.

[4] = Example 56 (table 8), 20 mg/kg single
[5] = Example 56 (table 8), 40 mg/kg single
[6] = Example 56 (table 8), 80 mg/kg single
[7] = Example 56 (table 8), 100 mg/kg single

## CC[C@@]1(O)C(=O)OCc2c1cc1n(c2=O)Cc2c-1nc1cc(F)c(C)c3c1c2[C@@H](NC(=O)CNC(=O)[C@H](Cc1ccccc1)NC(=O)CNC(=O)CN)CC3 [H)N-Gly-Gly-Phe-Gly-NH--A, 3'-N-(Gly-Gly-Phe-Gly)-NH--A (A--NH2 =DX-8951) Trifluoroacetic Acid Salt] (H-GGFG-Exatecan)
[1]
  antitumor activity (in words): not effective

## -Ala-Gly-
[2]
  releasing rate of spacer: relatively low releasing rate

## -Gly-Gly-
[2]
  releasing rate of spacer: low releasing rate

## -Gly-Gly-Gly-
[2]
  releasing rate of spacer: low releasing rate

## -Gly-Gly-Gly-Gly-: spacer of drug complexes bound with doxorubicin (GGGG; not fully specified; printed as -Gly-Gly-Gly-Gly-; also: spacer between polysaccharide derivative and drug in drug complex)
[2]
  releasing rate of spacer: low releasing rate

## -Gly-Gly-Gly-Gly-Gly-Gly-: spacer of drug complexes bound with doxorubicin
[2]
  releasing rate of spacer: relatively high releasing rate

## -Gly-Gly-Gly-Phe-: spacer of drug complexes bound with doxorubicin (GGGF; not fully specified; printed as -Gly-Gly-Gly-Phe-; also: spacer between polysaccharide derivative and drug in drug complex)
[2]
  releasing rate of spacer: relatively low releasing rate

## -Gly-Gly-Gly-Phe-Gly-: spacer of drug complexes bound with doxorubicin (GGGFG; not fully specified; printed as -Gly-Gly-Gly-Phe-Gly-; also: spacer between polysaccharide derivative and drug in drug complex)
[2]
  releasing rate of spacer: high releasing rate

## -Gly-Gly-Phe-Gly-: spacer of drug complexes bound with doxorubicin (GGFG; not fully specified; printed as -Gly-Gly-Phe-Gly-; also: spacer between polysaccharide derivative and drug in drug complex)
[2]
  releasing rate of spacer: high releasing rate
[2]; spacer for doxorubicin
  release of the drug compound (in words): can release the drug compound at high concentration in a short time

## -Gly-Gly-Phe-Phe-: spacer of drug complexes bound with doxorubicin (GGFF; not fully specified; printed as -Gly-Gly-Phe-Phe-; also: spacer between polysaccharide derivative and drug in drug complex)
[2]
  releasing rate of spacer: relatively high releasing rate

## -Gly-Phe-
[2]
  releasing rate of spacer: low releasing rate

## -Gly-Phe-Gly-Gly-: spacer of drug complexes bound with doxorubicin (GFGG; not fully specified; printed as -Gly-Phe-Gly-Gly-; also: spacer between polysaccharide derivative and drug in drug complex)
[2]
  releasing rate of spacer: high releasing rate

## -Leu-Gly-
[2]
  releasing rate of spacer: high releasing rate

## -Phe-Gly-
[2]
  releasing rate of spacer: high releasing rate

## -Phe-Gly-Gly-Gly-: spacer of drug complexes bound with doxorubicin (FGGG; not fully specified; printed as -Phe-Gly-Gly-Gly-; also: spacer between polysaccharide derivative and drug in drug complex)
[2]
  releasing rate of spacer: high releasing rate

## -Phe-Phe-
[2]
  releasing rate of spacer: relatively low releasing rate

## -Phe-Phe-Gly-Gly-: spacer of drug complexes bound with doxorubicin (FFGG; not fully specified; printed as -Phe-Phe-Gly-Gly-; also: spacer between polysaccharide derivative and drug in drug complex)
[2]
  releasing rate of spacer: high releasing rate

## -Pro-Gly-
[2]
  releasing rate of spacer: relatively low releasing rate

## -Ser-Gly-
[2]
  releasing rate of spacer: low releasing rate

## -Tyr-Gly-
[2]
  releasing rate of spacer: high releasing rate

## Carboxymethyldextran Polyalcohol-Gly-Gly-Gly-Phe-NH--A' (A--NH2 =)X-8951) ({carboxymethyldextran polyalcohol}-GGGF-Exatecan; also: N-terminus linked to carboxymethyldextran polyalcohol, C-terminus amide-linked to drug residue A' (DX-8951)) [Example 43]
[3]; [4]
  Inhibition rate: 75%
[3]; [5]
  Inhibition rate: 82%
[3]; [6]
  Inhibition rate: 92%
[3]; [7]
  Inhibition rate: 94%
[3]
  antitumor activity (in words): high antitumor activity
  effective dose-range (in words): broader effective dose-range

## Carboxymethyldextran Polyalcohol-Gly-Gly-Gly-Phe-NH--A' (A--NH2 =DX-8951) [Example 8] ({carboxymethyldextran polyalcohol}-GGGF-Exatecan; also: N-terminus linked to carboxymethyldextran polyalcohol, C-terminus amide-linked to drug residue A' (DX-8951))
[3]; Example 12 (Table 3), 5 mg/kg single
  Inhibition rate: 76%
[3]; Example 12 (Table 3), 10 mg/kg single
  Inhibition rate: 85%
[3]
  antitumor activity (in words): (Polysaccharide derivative)-Gly-Gly-Gly-Phe-NH--A'> the drug compound, per se

## Carboxymethyldextran Polyalcohol-Gly-Gly-Gly-Phe-NH--A' (A--NH2 =DX-8951) [Example 29] ({carboxymethyldextran polyalcohol}-GGGF-Exatecan; also: N-terminus linked to carboxymethyldextran polyalcohol, C-terminus amide-linked to drug residue A' (DX-8951))
[3]; Example 56 (table 8), 5 mg/kg single
  Inhibition rate: 79%
[3]; Example 56 (table 8), 10 mg/kg single
  Inhibition rate: 89%
[3]; [4]
  Inhibition rate: 99%
[3]; Example 56 (table 8), 30 mg/kg single
  Inhibition rate: 99%
[3]
  antitumor activity (in words): high antitumor activity
  effective dose-range (in words): broader effective dose-range

## Carboxymethyldextran Polyalcohol-Gly-Gly-Phe-Gly-NH--A' (A--NH2 =DW-8089) ({carboxymethyldextran polyalcohol}-GGFG-{DW‑8089}; also: N-terminus linked to carboxymethyldextran polyalcohol, C-terminus amide-linked to drug residue A' (DW-8089)) [Example 41]
[3]; Example 55 (table 7), 3.125 mg/kg single
  Inhibition rate: 61%
[3]; Example 55 (table 7), 6.25 mg/kg single
  Inhibition rate: 81%
[3]; Example 55 (table 7), 12.5 mg/kg single
  Inhibition rate: 95%
[3]; Example 55 (table 7), 25 mg/kg single
  Inhibition rate: 99%
[3]
  antitumor activity (in words): remarkably enhanced antitumor activity
  effective dose-range (in words): broader effective dose-range

## α-methylcarboxymethyldextran Polyalcohol-Gly-Gly-Gly-Phe-NH--A' (A--NH2 =DX-8951) [Example 44]
[3]; [4]
  Inhibition rate: 75%
[3]; [5]
  Inhibition rate: 97%
[3]; [6]
  Inhibition rate: 94%
[3]; [7]
  Inhibition rate: 96%
[3]
  antitumor activity (in words): high antitumor activity
  effective dose-range (in words): broader effective dose-range
